The values below come from BindingDB's records for doi:10.1074/jbc.M109.017632 (University of California San Francisco, 2009).

Structures are written as SMILES.

Holding throughout (test): Binding Assay
In assay [1] the target is T1, Cytochrome P450 130 (Mycobacterium tuberculosis (strain ATCC 25618 / H37Rv), UniProt P9WPN5).
T1 sequence (P9WPN5 whole entry): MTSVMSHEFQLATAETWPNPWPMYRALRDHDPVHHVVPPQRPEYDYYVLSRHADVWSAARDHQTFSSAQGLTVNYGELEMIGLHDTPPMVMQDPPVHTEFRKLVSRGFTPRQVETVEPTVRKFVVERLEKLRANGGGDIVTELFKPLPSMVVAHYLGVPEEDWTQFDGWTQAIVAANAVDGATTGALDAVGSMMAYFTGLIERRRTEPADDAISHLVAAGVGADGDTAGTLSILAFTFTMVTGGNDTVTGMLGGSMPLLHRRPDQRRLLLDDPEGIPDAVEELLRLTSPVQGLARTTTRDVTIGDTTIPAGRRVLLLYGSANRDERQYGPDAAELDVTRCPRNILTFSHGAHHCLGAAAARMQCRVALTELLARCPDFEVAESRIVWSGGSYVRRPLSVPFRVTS
The source says: (§1) Binding assay using CYP130, CYP130 (G234) or CYP142.

The target of assay [2] is T2, Cytochrome P450 130 (Mycobacterium tuberculosis (strain CDC 1551 / Oshkosh), UniProt P9WPN4).
T2 sequence (P9WPN4 whole entry): T1 sequence (P9WPN5 whole entry)
Source text: as §1

Assay [3] concerns the target T3, Steroid C26-monooxygenase (Mycobacterium tuberculosis (strain CDC 1551 / Oshkosh), UniProt P9WPL4).
T3 sequence (P9WPL4 whole entry): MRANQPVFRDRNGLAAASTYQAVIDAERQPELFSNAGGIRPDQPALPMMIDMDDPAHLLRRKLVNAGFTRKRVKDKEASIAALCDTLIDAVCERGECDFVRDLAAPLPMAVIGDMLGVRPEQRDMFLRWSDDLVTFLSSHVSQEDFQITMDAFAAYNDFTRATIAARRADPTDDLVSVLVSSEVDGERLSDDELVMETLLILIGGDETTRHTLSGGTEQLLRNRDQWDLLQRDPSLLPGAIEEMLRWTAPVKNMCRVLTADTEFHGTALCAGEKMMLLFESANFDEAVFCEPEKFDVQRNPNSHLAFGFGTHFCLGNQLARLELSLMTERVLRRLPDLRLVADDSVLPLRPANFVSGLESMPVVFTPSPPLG
Source text: as §1

With `NCc1ccccc1`, the figures for the dissociation constant (Kd) (at Cytochrome P450 130 [1]; on Cytochrome P450 130 [2]; in assay [3]) were 10000 µM, 9990 µM and 0.1 µM, respectively.

For `Clc1ccc(COC(Cn2ccnc2)c2ccc(Cl)cc2Cl)cc1` (stereo unspecified) [ECONAZOLE], the Kd is 4.5 µM on Cytochrome P450 130 [1], 1.93 µM at Cytochrome P450 130 [2] and 0.33 µM in assay [3].

On to `Clc1ccccc1C(c1ccccc1)(c1ccccc1)n1ccnc1`, for which the Kd on Cytochrome P450 130 [1] turned out to be 6.1 µM; on Cytochrome P450 130 [2], 13.3 µM.

Take `Nc1ccccc1` [Aniline]: the Kd on Cytochrome P450 130 [1] is 2500 µM; on Cytochrome P450 130 [2] it was 55.2 µM; in assay [3], 59.2 µM.

For `Cc1cccc(-n2cnc3cc(N)ccc32)c1` [Arylamine compound 4], the figures for the Kd on Cytochrome P450 130 [1] and on Cytochrome P450 130 [2] were 32.6 µM and 4.8 µM, respectively.

On to `Nc1ccc(Sc2ccc(N3C(=O)c4ccc(N)cc4C3=O)cc2)cc1` [Arylamine compound 2], for which the Kd at Cytochrome P450 130 [1] was determined as 4.9 µM; at Cytochrome P450 130 [2], 1.08 µM; in assay [3], 0.17 µM.
